Structures can show the parent of a compound that is named as a salt.
Tests used:
[1] = system: SMN protein; assay: SMN protein assay (HTRF) in cultured SMA patient fibroblast cells; format: cell-based; details: SMA Type 1 human fibroblasts GM03813, 48 hours; for EC1.5x SMN protein (EC1.5x concentration for SMN protein expression): 7-point concentration curve, concentration giving 1.5 times SMN protein vs vehicle; for max. fold increase (maximum fold increase of SMN protein): 7-point concentration data, fold vs vehicle control
Description: The SMN HTRF (homogeneous time resolved fluorescence) assay is used to quantify the level of SMN protein in SMA patient fibroblast cells treated with test compounds.
Cells are thawed and cultured in DMEM-10% FBS for 72 hours. Cells are trypsinized, counted and re-suspended to a concentration of 25,000 cells/mL in DMEM-10% FBS. The cell suspensions are plated at 5,000 cells per well in a 96 well microtiter plate and incubated for 3 to 5 hours. […] 1 μL of test compound solution is transferred to cell-containing wells and cells are incubated for 48 hours in a cell culture incubator (37° C., 5% CO2, 100% relative humidity). Triplicate samples are set up for each test compound concentration. After 48 hours, the supernatant is removed from the wells and 25 μL of the RIPA lysis buffer, containing protease inhibitors, is added to the wells and incubated with shaking at room temperature for 1 hour. 25 μL of the diluent is added and then 35 μL of the resulting lysate is transferred to a 384-well plate, where each well contains 5 μL of the antibody solution (1:100 dilution of anti-SMN d2 and anti-SMN kryptate in SMN reconstitution buffer). The plate is centrifuged for 1 minute to bring the solution to the bottom of the wells, then incubated overnight at room temperature. Fluorescence for each well of the plate at 665 nm and 620 nm is measured on an EnVision multilabel plate reader (Perkin-Elmer).
The normalized fluorescence signal is calculated for each sample, Blank and vehicle control well by dividing the signal at 665 nm by the signal at 620 nm. Normalizing the signal accounts for possible fluorescence quenching due to the matrix effect of the lysate. The ΔF value (a measurement of SMN protein abundance as a percent value) for each sample well is calculated by subtracting the normalized average fluorescence for the Blank control wells from the normalized fluorescence for each sample well, then dividing this difference by the normalized average fluorescence for the Blank control wells and multiplying the resulting value by 100. The ΔF value for each sample well represents the SMN protein abundance from test compound-treated samples. The ΔF value for each sample well is divided by the ΔF value for the vehicle control wells to calculate the fold increase in SMN protein abundance relative to the vehicle control. Table 3 provides EC1.5x concentrations for SMN protein expression that was obtained from the 7-point concentration data generated according to the above procedure for particular compounds of the present invention.
Table 4 provides the maximum fold increase of SMN protein that was obtained from the 7-point concentration data generated according to the above procedure for particular compounds of the present invention

[2] = system: full length SMN2 minigene mRNA (FL SMN2mini) in HEK293H cells stably transfected with the SMN2-A minigene construct; assay: SMN2 minigene mRNA splicing RT-qPCR assay in cultured cells; format: cell-based; details: Homo sapiens, HEK293-H, 24 hours, 7-point concentration curve, concentration giving 1.5-fold FL SMN2mini mRNA vs vehicle, read-out: EC1.5x minigene (EC1.5x concentration for production of full length SMN2 minigene mRNA)
Description: The reverse transcription-quantitative PCR-based (RT-qPCR) assay is used to quantify the level of the full length SMN2 minigene (referred to herein by the term “FL SMN2mini”) mRNA containing SMN2 exon 7 in a HEK293H cell line stably transfected with said minigene and treated with a test compound.
The SMN2-A minigene construct was prepared as described in International Patent Application WO2009/151546A1 page 145 paragraph [00400] to page 147 paragraph [00412](incl. FIG. 1 and FIG. 3 therein).
HEK293H cells stably transfected with the SMN2-A minigene construct (10,000 cells/well) are seeded in 200 μL of cell culture medium (DMEM plus 10% FBS, with 200 μg/mL hygromycin) in 96-well flat-bottom plates and the plate is immediately swirled to ensure proper dispersal of cells and the formation of an even monolayer of cells. Cells are allowed to attach for 6 hours. […] A solution of test compound (1 μL, 200× in DMSO) is added to each cell-containing well and the plate is incubated for 24 hours in a cell culture incubator (37° C., 5% CO2, 100% relative humidity). 2 replicates are prepared for each test compound concentration. The cells are then lysed in the Cells-To-Ct lysis buffer and the lysate is stored at −80° C.
Full length SMN2-A minigene and GAPDH mRNA are quantified using the primers and probes referenced in Table 1. Primer SMN Forward A (SEQ ID NO.1) hybridizes to a nucleotide sequence in exon 7 (nucleotide 22 to nucleotide 40), primer SMN Reverse A (SEQ ID NO.2) hybridizes to a nucleotide sequence in the coding sequence of Firefly luciferase, SMN Probe A (SEQ ID NO.3) hybridizes to a nucleotide sequence in exon 7 (nucleotide 50 to nucleotide 54) and exon 8 (nucleotide 1 to nucleotide 21). The combination of these three oligonucleotides detects only SMN1 or SMN2 minigenes (RT-qPCR) and will not detect endogenous SMN1 or SMN2 genes.
The SMN forward and reverse primers are used at final concentrations of 0.4 μM. The SMN probe is used at a final concentration of 0.15 μM. The GAPDH primers are used at final concentrations of 0.2 μM and the probe at 0.15 μM.
The SMN2-minigene GAPDH mix (15 μL total volume) is prepared by combining 7.5 μL of 2×RT-PCR buffer, 0.4 μL of 25×RT-PCR enzyme mix, 0.75 μL of 20×GAPDH primer-probe mix, 4.0075 μL of water, 2 μL of 10-fold diluted cell lysate, 0.06 μL of 100 μM SMN forward primer, 0.06 μL of 100 μM SMN reverse primer, and 0.225 μL of 100 μM SMN probe.
PCR is carried out at the following temperatures for the indicated time: Step 1: 48° C. (15 min); Step 2: 95° C. (10 min); Step 3: 95° C. (15 sec); Step 4: 60° C. (1 min); then repeat Steps 3 and 4 for a total of 40 cycles.
Each reaction mixture contains both SMN2-A minigene and GAPDH primers/probe sets (multiplex design), allowing simultaneous measurement of the levels of two transcripts.
The increase in the abundance of the FL SMN2mini mRNA relative to that in cells treated with vehicle control is determined from real-time PCR data using a modified ΔΔCt method (as described in Livak and Schmittgen, Methods, 2001, 25:402-8). The amplification efficiency E is calculated from the slope of the amplification curve for FL SMN2mini and GAPDH individually. The abundance of FL SMN2mini and GAPDH mRNA are then calculated as (1+E)^−Ct, where Ct is the threshold value for each amplicon. The abundance of FL SMN2mini mRNA is normalized to GAPDH mRNA abundance. The normalized FL SMN2mini mRNA abundance from test compound-treated samples is then divided by normalized FL SMN2mini mRNA abundance from vehicle-treated cells to determine the level of FL SMN2mini mRNA relative to vehicle control.
Table 2 provides EC1.5x concentrations for production of full length SMN2 minigene mRNA that was obtained from the 7-point concentration data generated according to the above procedure for particular compounds of the present invention.

Row | Compound | EC1.5x SMN protein (EC1.5x concentration for SMN protein expression) [1] [µM] | max. fold increase (maximum fold increase of SMN protein) [1] | EC (1.5-fold) [2] [µM]
1 | Cc1cn2cc(NC(=O)c3ccc(N4CCNC(C)C4)cn3)cc(F)c2n1 (racemic) [Example 43, rac-N-(8-fluoro-2-methylimidazo[1,2-a]pyridin-6-yl)-5-(3-methylpiperazin-1-yl)picolinamide dihydrochloride] | 0.104 | 1.7873 | 0.057
2 | Cc1cn2cc(NC(=O)c3ccc(N4CC(C)NC(C)C4)nc3)cc(C(F)(F)F)c2n1 (centres unmarked) [Example 22, 6-(3,5-dimethyl-piperazin-1-yl)-N-(2-methyl-8-(trifluoromethyl)-imidazo[1,2-a]-pyridin-6-yl)-nicotinamide] | 0.4468 | 1.7566 | 0.263
3 | Cc1cn2cc(NC(=O)c3ccc(N4CCN(C)C(C)C4)nc3)ccc2n1 (racemic) [Example 82, rac-6-(3,4-dimethylpiperazin-1-yl)-N-(2-methylimidazo[1,2-a]pyridin-6-yl)nicotinamide] | 0.7698 | 1.7306 | 0.371
4 | Cc1cn2cc(NC(=O)c3ccc(N4CCNC(C)C4)cc3F)cc(F)c2n1 (racemic) [Example 39, rac-2-fluoro-N-(8-fluoro-2-methyl-imidazo[1,2-a]-pyridin-6-yl)-4-(3-methylpiperazin-1-yl)benzamide dihydrochloride] | 0.0147 | 1.8791 | 0.0168
5 | Cc1cn2cc(NC(=O)c3ccc(N4CCNC(C)C4)cc3F)cc(C)c2n1 (racemic) [Example 37, rac-N-(2,8-dimethyl-imidazo[1,2-a]-pyridin-6-yl)-2-fluoro-4-(3-methylpiperazin-1-yl)benamide dihydrochloride] | 0.1196 | 1.7758 | 0.028
6 | Cc1cn2cc(NC(=O)c3ccc(N4CCNC(C)C4)cc3)nc2c(C)n1 (racemic) [Example 2, rac-N-(6,8-dimethyl-imidazo[1,2-a]-pyrazin-2-yl)-4-(3-methylpiperazin-1-yl)benzamide] | 0.2984 | 1.8878 | 0.14
7 | Cc1cn2cc(NC(=O)c3ccc(N4CCN[C@@H](C)C4)cc3F)cc(F)c2n1 [Example 50, (S)-2-fluoro-N-(8-fluoro-2-methyl-imidazo[1,2-a]-pyridin-6-yl)-4-(3-methylpiperazin-1-yl)benzamide hydrochloride] | 0.0344 | 1.6607 | 0.0068
8 | Cc1cn2cc(NC(=O)c3ccc(C4=CCNCC4)nc3)ccc2n1.Cl [Example 77, N-(2-methylimidazo[1,2-a]pyridin-6-yl)-6-(1,2,3,6-tetrahydropyridin-4-yl)nicotinamide hydrochloride] | 0.2279 | 1.6649 | 0.0641
9 | Cc1cn2cc(NC(=O)c3ccc(C4=CCNCC4)cc3F)cc(F)c2n1 [Example 61, 2-fIuoro-N-(8-fluoro-2-methyl-imidazo[1,2-a]-pyridin-6-yl)-4-(1,2,3,6-tetra-hydropyridin-4-yl)benzamide hydrochloride] |  | 1.7077 | 0.01
10 | Cc1nc2c(F)cc(NC(=O)c3ccc(N4CCNC(C)C4)cc3)cc2o1 (racemic) [Example 29, rac-N-(4-fluoro-2-methylbenzo[d]-oxazol-6-yl)-4-(3-methylpiperazin-1-yl)benzamide] | 0.4618 | 1.632 | 0.267
11 | Cc1nc2ccc(NC(=O)c3ccc(N4CCNC(C)C4)cc3F)cc2o1 (racemic) [Example 38, rac-2-fluoro-N-(2-methylbenzo[d]-oxazol-6-yl)-4-(3-methylpiperazin-1-yl)benzamide dihydrochloride] | 0.6124 | 1.8706 | 0.472
12 | Cc1cn2cc(NC(=O)c3ccc(N4CCNCC4)nc3F)cc(F)c2n1 [Example 65, 2-fIuoro-N-(8-fluoro-2-methylimidazo[1,2-a]pyridin-6-yl)-6-(piperazin-1-yl)-nicotinamide] | 0.1135 | 1.7675 | 0.0762
